“Also recorded” adds a separate entry of the source. Ends that are not written are not given here.
How the values were obtained:
CNV [1] = settings: humans, topical administration; cited from earlier work
[2] = test system: corneal neovascularization; assay: b-FGF pellet implantation angiogenesis model (mouse corneal micropocket); type: in vivo, C57Bl/6 mice; settings: 1 mg/ml topical, 4 times per day for 1 week
Method: Male 6- to 8-week-old C57Bl/6 mice (Taconic Farms, Germantown, N.Y.) were used in experiments for Examples 1 to 3. Male 6- to 8-week-old C57Bl/6 mice (Charles River Lab, Calco, Milan, Italy) were used in experiments for Examples 4-6. Prior to pellet implantation or caustication, animals were anesthetized by intraperitoneal injection of ketamine (120 mg/kg) and xylazine (20 mg/kg) before any surgery.
b-FGF Pellet Implantation Angiogenesis Model
This model was employed to assess the effect of pharmaceutically active substances on the angiogenesis component of CNV.
Sustained release b-FGF micropellets (40 ng/pellet) were prepared as described in Azar D T, Am Ophthalmol Soc 2006; 104:264-302.
Briefly, the pellets were implanted through half thickness linear incisions at the center of cornea using a disposable 30 degrees microknife (F.S.T., Foster City, Calif., USA). Lamellar pocket incisions were then made parallel to the corneal plane using a Von Graefe knife (F.S.T., Foster City, Calif., USA) and advanced to the temporal limbus at lateral canthal area. The pellets were positioned into the pocket 1.0 mm apart from the limbal vascular arcade in temporal side, and tetracycline ophthalmic ointment was applied to the eye after pellet implantation to prevent post surgical infections.
(§1) After taking photographs under the slit lamp, five mice per group were sacrificed 7 days after b-FGF micropellet implantation or caustication, and freshly enucleated eyes were prepared into corneal flat mounts. Immunohistochemical staining was performed with FITC-conjugated CD31/PECAM-1 (rat-anti-mouse antibody; 1:100; Santa Cruz Biotechnology, Santa Cruz, Calif.). Images were taken at 40×, 400× and 600× magnification. To quantify the blood vessels, corneal whole-mounts were covered with mounting medium (Vector, Burlingame, Calif.) and examined by an epifluorescent microscope. For toxicity studies, mice were examined at the slit lamp daily. Animals were sacrificed seven days later and eye bulbs were removed, fixed in 4% paraformaldehyde, cross-sectioned and stained with standard hematoxylin-eosin. At least three to five different corneas were examined; representative data are presented.
Both slit-lamp and fluorescence microscopy pictures were qualitatively compared for the amount of corneal neovascularization. Gross anatomical alterations such as disruption of epithelial layer, inflammatory cell infiltration, or endothelial cell loss were searched in hematoxylin-eosin cross sections. […]
Following b-FGF pellet implantation, neovessels are expected to grow from the limbal vessels (i.e. from the periphery of the cornea), towards the pellet, which is placed in the avascular cornea. The extent of neovascularisation is then evaluated.

[3] = test system: corneal neovascularization; assay: Alkali burn (sodium hydroxide caustication) neovascularization model; type: in vivo, C57Bl/6 mice; settings: for corneal perforation / corneal transparency / incidence of symblepharon and ankyloblepharon / lid anatomy: topical treatment of ocular burns, Examples 4-6
Method: Prior to pellet implantation or caustication, animals were anesthetized by intraperitoneal injection of ketamine (120 mg/kg) and xylazine (20 mg/kg) before any surgery.
In fact, the Alkali burn model is considered an inflammation-driven model of neovascularisation, whereby a reduction in inflammatory cell influx is associated with clinical improvement.
Mice were anesthetized by intraperitoneal injection of ketamine (120 mg/kg) and xylazine (20 mg/kg) before any surgery. A 2-mm disc of filter paper saturated with 1 N NaOH was placed onto the right cornea of each mouse for 40 seconds, followed by rinsing extensively with phosphate-buffered saline (PBS) for 2 minutes.
as §1
(§2) Both slit-lamp and fluorescence microscopy pictures were qualitatively compared for the amount of corneal neovascularization. Gross anatomical alterations such as disruption of epithelial layer, inflammatory cell infiltration, or endothelial cell loss were searched in hematoxylin-eosin cross sections.
Male 6- to 8-week-old C57Bl/6 mice were treated to induce neovascularization using sodium hydroxide caustication (see Experimental Methods)
5 mice per group were used. After taking photographs at the slit lamp, mice were sacrificed. Immunohistochemical staining was performed with FITC-conjugated CD31/PECAM-1 to reveal corneal neovessels.
Lanepitant (WO9907681) was dissolved in PBS. It was administered topically to the eye with the following dose regimen after alkali burn induced neovascularization of the cornea: • 0.4 mg/ml, 6 times a day for 4 days, starting on the day of the tissue injury (“Day 0” to “Day 3”). • 1.6 mg/ml, 6 times a day for 4 days, starting on the day of the tissue injury (“Day 0” to “Day 3”). • 6.4 mg/ml, 6 times a day for 4 days, starting on the day of the tissue injury (“Day 0” to “Day 3”). • PBS Control, 6 times a day for 4 days, starting on the day of the tissue injury (“Day 0” to “Day 3”).
Three mice (for a total of 6 eyes) were treated in each experimental group.
On Day 4, After taking photographs at the slit lamp, mice were sacrificed. Immunohistochemical staining was performed with FITC-conjugated CD31/PECAM-1 to reveal corneal neovessels (FIG. 4A). Following alkali burn, neovessels are expected to grow from the periphery towards the center of the cornea. The extent of the neovascularization is then evaluated. Briefly, corneas were excised, fixed and stained with FITC-conjugated CD31/PECAM-1 to reveal corneal neovessels. […] The neovascular area was then calculated by measuring the Neovascular Area Index (NV Index). This was obtained by calculating the ratio of the neovascular area—obtained by joining together the inner tip of the neovessels—and the total surface of the cornea (i.e. the total area of the cornea).
Befetupitant (WO020008232) was dissolved in DMSO (Dimethyl SulfOxyde).

healthy cornea = assay: Toxicity following topical application in healthy eyes; type: in vivo, C57Bl/6 mice
Method: as §1, §2
Fosaprepitant toxicity was tested on the healthy cornea by administering to 3 healthy C57Bl/6 mice fosaprepitant (purchased from Universal Drug Store, Canada and diluted as per technical sheet instructions with 0.9% NaCl solution to reach a final concentration of 1 mg/ml) at the concentration of 1 mg/ml in the conjunctival sac 4 times per day for 1 week. In vivo corneal biomicroscopy imaging and hematoxylin eosin ocular cross sections were checked as markers for toxicity.

[4] = test system: corneal neovascularization; assay: Alkali burn (sodium hydroxide caustication) neovascularization model; type: in vivo, C57Bl/6 mice
[5] = test system: growth of capillary vessels; settings: slow release pellets in avascular cornea of rabbits; cited from earlier work
endothelial cells = settings: in vitro; cited from earlier work
CNV [6] = settings: in vivo; cited from earlier work
[7] = 1 mg/ml topical, 4 times per day for 1 week, versus placebo
[8] = increasing dose 0.4, 1.6, 6.4 mg/ml topical, 6 times a day for 4 days, Day 4

In the case of “bevacizumab: anti-VEGF monoclonal antibody”, the “inhibiting CNV” value (CNV [1]) is listed as “some effect”.

With `C[C@@H](O[C@H]1OCCN(Cc2nc(O)n(P(=O)(O)O)n2)[C@H]1c1ccc(F)cc1)c1cc(C(F)(F)F)cc(C(F)(F)F)c1` [fosaprepitant, [3-{[(2R,3S)-2-[(1R)-1-[3,5-bis(trifluoromethyl)phenyl]ethoxy]-3-(4-fluorophenyl)morpholin-4-yl]methyl}-5-oxo-2H-1,2,4-triazol-1-yl]phosphonic acid] the “length of the vessels” value ([2]; slit lamp, 7 days after implantation) was “appeared reduced”, the “area of normally avascular cornea invaded by neovessels” value ([2]; versus placebo) was “smaller” and the “density of vascular ramifications (number of vascular branches per surface unit)” value ([2]; versus placebo) was “reduced”. The “corneal neovascularization (slit lamp, CD31/PECAM-1 whole mounts)” value ([2]; conjunctival sac, 7 days after implantation, versus placebo (PBS)) was “less neovascularization; also recorded: reduces corneal neovascularization”, the “area of normally avascular cornea invaded by neovessels” value [3, 7] was “smaller” and the “alteration of corneal epithelium, stroma or endothelium at slit lamp observation” value (healthy cornea; 1 mg/ml topical, 4 times per day, up to 7 days, healthy corneas) was “No alteration”. The “hematoxylin-eosin staining of eyeball cross-sections (epithelium, stroma, endothelium)” value (healthy cornea; 1 mg/ml topical, 4 times per day, 7 days) was “no anatomical alteration was detected”, the “toxicity to the cornea” value (healthy cornea; topical application (FIG. 3)) was “not toxic” and the “corneal neovascularization (slit lamp, epifluorescent microscopy)” value ([4]; 1 mg/ml topical, 4 times per day for 1 week, 7 days after caustication, versus placebo (PBS)) was “remarkably reduced; also recorded: reduces corneal neovascularization”. For the same compound, the “density of vascular ramifications (number of vascular branches per surface unit)” value [4, 7] was “reduced” and the corneal transparency ([4]; 1 mg/ml topical, 4 times per day for 1 week, versus placebo-treated corneas) was “much improved”.

In the case of “Substance P: C-amidated decapeptide of the tachykinin family; principal receptor NK-1 (RPKPQQFFGLM-NH2; UniProt P20366 58-68, looked up)”, the “vessel growth in the cornea” value [5] is given as “induced a marked neovascularization” and the “proliferation of endothelial cells” value (endothelial cells) is given as “increased proliferation”.

For `CC(=O)OCC(=O)[C@@]1(O)CC[C@H]2[C@@H]3CCC4=CC(=O)CC[C@]4(C)C3=CC[C@@]21C` [anecortave acetate], the “efficacy in animal models of CNV” value (CNV [6]) is listed as “effective”.

In the case of `COc1ccccc1CN(C[C@@H](Cc1c[nH]c2ccccc12)NC(=O)CN1CCC(N2CCCCC2)CC1)C(C)=O` [lanepitant], the “Neovascular Area Index (NV Index)” value ([3]; 6.4 mg/ml topical, 6 times a day for 4 days, compared to vehicle) is reported as “statistically significant reduction”, the “anatomy of the eyelids” value ([3]; 0.4, 1.6, 6.4 mg/ml topical, 6 times a day for 4 days, Day 4, versus vehicle) is reported as “appeared better preserved” and the corneal transparence ([3]; increasing dose 0.4, 1.6, 6.4 mg/ml topical, 6 times a day for 4 days from day of injury, Day 4, versus vehicle (PBS)) is reported as “increased corneal transparence”. The “Neovascular Area Index (NV Index)” value [3, 8] was “progressively reduced”, the “corneal neovessels (CD31/PECAM-1)” value [3, 8] was “progressively reduced; also recorded: reduces corneal neovascularization” and the “effect on neovascularization compared to the same dose administered after the tissue injury” value ([3]; pre-treatment 1.6 mg/ml versus 1.6 mg/ml started on day of injury) was “increased effect”. For the same compound, the corneal perforation [3] was “reduced”, the corneal transparency [3] was “increased” and the “incidence of symblepharon and ankyloblepharon” value [3] was “reduced”. The lid anatomy [3] was “appeared better preserved”, the “Cornea Neovascular Index” value ([4]; pre-treatment: 1.6 mg/ml topical, 6 times a day from before the injury through Day 3, day 4) was “statistically significant reduction” and the corneal neovascularization ([4]; pre-treatment: 1.6 mg/ml topical, 6 times a day from before the injury through Day 3, day 4, versus vehicle) was “appeared reduced; also recorded: reduces corneal neovascularization”.

With `Cc1ccccc1-c1cc(N2CCOCC2)ncc1N(C)C(=O)C(C)(C)c1cc(C(F)(F)F)cc(C(F)(F)F)c1` [befetupitant] the “Corneal Neovascular Index” value ([3]; 0.4 mg/ml topical, 3 times a day for 9 days, compared to vehicle (DMSO)) was “statistically significant reduction”, the corneal perforation [3] was “reduced” and the corneal transparency [3] was “increased”. For the same compound, the “incidence of symblepharon and ankyloblepharon” value [3] was “reduced”, the lid anatomy [3] was “appeared better preserved” and the “Corneal Neovascular Index” value ([4]; 1.6 mg/ml topical, 3 times a day for 9 days, compared to vehicle (DMSO)) was “statistically significant reduction”. The “corneal neovessels (CD31/PECAM-1)” value ([4]; increasing doses 0.4, 1.6 mg/ml in DMSO, topical, 3 times a day for 9 days, day 9) was “reduced; also recorded: reduces corneal neovascularization”.

Source: patent US9782397B2, “Treatment of corneal neovascularization” (IRBM SCIENCE PARK S.P.A., priority 2011, dated 2017)
